Test results as given in PubChem BioAssay (NCI).
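GI50 is the concentration that inhibits growth by half. Definition used: TGI = concentration required for complete inhibition of growth.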

Tests used:
Assay in all cases: NCI tumour cell line growth inhibition, 384-well format
NCI-H460 NSCLC = system: NCI-H460 NSCLC
UO-31 renal = system: UO-31 renal
PC-3 prostate = system: PC-3 prostate
SF-268 CNS = system: SF-268 CNS
NCI-H226 lung = system: NCI-H226 lung
RXF 393 renal = system: RXF 393 renal
M14 melanoma = system: M14 melanoma
786-0 renal = system: 786-0 renal
OVCAR-5 ovarian = system: OVCAR-5 ovarian
A498 renal = system: A498 renal
HT29 colon = system: HT29 colon
SF-539 CNS = system: SF-539 CNS
UACC-257 melanoma = system: UACC-257 melanoma
NCI/ADR-RES ovarian = system: NCI/ADR-RES ovarian
HOP-62 NSCLC = system: HOP-62 NSCLC
DU-145 prostate = system: DU-145 prostate
KM12 colon = system: KM12 colon
RPMI-8226 leukemia = system: RPMI-8226 leukemia
MCF7 breast = system: MCF7 breast
EKVX NSCLC = system: EKVX NSCLC
NCI-H23 lung = system: NCI-H23 lung
OVCAR-3 ovarian = system: OVCAR-3 ovarian
MDA-MB-468 breast = system: MDA-MB-468 breast
HS 578T breast = system: HS 578T breast
A549 NSCLC = system: A549 NSCLC
SNB-19 CNS = system: SNB-19 CNS
SW-620 colon = system: SW-620 colon
SF-295 CNS = system: SF-295 CNS
IGROV1 ovarian = system: IGROV1 ovarian
SK-MEL-28 melanoma = system: SK-MEL-28 melanoma
SK-OV-3 ovarian = system: SK-OV-3 ovarian
U251 glioblastoma = system: U251 glioblastoma
MALME-3M melanoma = system: MALME-3M melanoma
HCC-2998 colon = system: HCC-2998 colon
NCI-H522 lung = system: NCI-H522 lung
K-562 leukemia = system: K-562 leukemia
CAKI-1 renal = system: CAKI-1 renal
HOP-92 NSCLC = system: HOP-92 NSCLC
TK-10 renal = system: TK-10 renal
CCRF-CEM leukemia = system: CCRF-CEM leukemia
HL-60(TB) leukemia = system: HL-60(TB) leukemia
UACC-62 melanoma = system: UACC-62 melanoma
SNB-75 CNS = system: SNB-75 CNS
SK-MEL-2 melanoma = system: SK-MEL-2 melanoma
OVCAR-8 ovarian = system: OVCAR-8 ovarian
MDA-MB-231 breast = system: MDA-MB-231 breast
SN12C renal = system: SN12C renal
LOX IMVI melanoma = system: LOX IMVI melanoma
T-47D breast = system: T-47D breast
OVCAR-4 ovarian = system: OVCAR-4 ovarian
SK-MEL-5 melanoma = system: SK-MEL-5 melanoma
NCI-H322M lung = system: NCI-H322M lung
HCT-116 colon = system: HCT-116 colon
BT-549 breast = system: BT-549 breast
HCT-15 colon = system: HCT-15 colon
MOLT-4 leukemia = system: MOLT-4 leukemia
COLO 205 colon = system: COLO 205 colon
ACHN renal = system: ACHN renal
MDA-MB-435 melanoma = system: MDA-MB-435 melanoma

Compound: CNC(=O)c1ccccc1Nc1nc(Nc2ccc(N3CCOCC3)cc2OC)ncc1Cl
- GI50 (NCI-H460 NSCLC): 267 nM
- TGI (NCI-H460 NSCLC): 1160 nM
- GI50 (UO-31 renal): 718 nM
- TGI (UO-31 renal): 5320 nM
- GI50 (PC-3 prostate): 1870 nM
- TGI (PC-3 prostate): 13500 nM
- GI50 (SF-268 CNS): 1620 nM
- TGI (SF-268 CNS): 14300 nM
- GI50 (NCI-H226 lung): 636 nM
- TGI (NCI-H226 lung): 5350 nM
- GI50 (RXF 393 renal): 467 nM
- TGI (RXF 393 renal): 2310 nM
- GI50 (M14 melanoma): 359 nM
- TGI (M14 melanoma): 5880 nM
- GI50 ([…]-0 renal): 997 nM
- TGI (786-0 renal): 4990 nM
- GI50 (OVCAR-5 ovarian): 597 nM
- TGI (OVCAR-5 ovarian): 5660 nM
- GI50 (A498 renal): 519 nM
- TGI (A498 renal): 9570 nM
- GI50 (HT29 colon): 200 nM
- TGI (HT29 colon): 1660 nM
- GI50 (SF-539 CNS): 1390 nM
- TGI (SF-539 CNS): 7130 nM
- GI50 (UACC-257 melanoma): 2620 nM
- TGI (UACC-257 melanoma): 22200 nM
- GI50 (NCI/ADR-RES ovarian): 499 nM
- TGI (NCI/ADR-RES ovarian): 2720 nM
- GI50 (HOP-62 NSCLC): 751 nM
- TGI (HOP-62 NSCLC): 8770 nM
- GI50 (DU-145 prostate): 485 nM
- TGI (DU-145 prostate): 3470 nM
- GI50 (KM12 colon): 261 nM
- TGI (KM12 colon): 899 nM
- GI50 (RPMI-8226 leukemia): 236 nM
- TGI (RPMI-8226 leukemia): 826 nM
- GI50 (MCF7 breast): 93.7 nM
- TGI (MCF7 breast): 14600 nM
- GI50 (EKVX NSCLC): 158 nM
- TGI (EKVX NSCLC): 1320 nM
- GI50 (NCI-H23 lung): 431 nM
- TGI (NCI-H23 lung): 2630 nM
- GI50 (OVCAR-3 ovarian): 716 nM
- TGI (OVCAR-3 ovarian): 6280 nM
- GI50 (MDA-MB-468 breast): 655 nM
- TGI (MDA-MB-468 breast): 2200 nM
- GI50 (HS 578T breast): 977 nM
- TGI (HS 578T breast): 3470 nM
- GI50 (A549 NSCLC): 398 nM
- TGI (A549 NSCLC): 2120 nM
- GI50 (SNB-19 CNS): 2690 nM
- TGI (SNB-19 CNS): 19600 nM
- GI50 (SW-620 colon): 400 nM
- TGI (SW-620 colon): 2440 nM
- GI50 (SF-295 CNS): 511 nM
- TGI (SF-295 CNS): 7440 nM
- GI50 (IGROV1 ovarian): 380 nM
- TGI (IGROV1 ovarian): 1910 nM
- GI50 (SK-MEL-28 melanoma): 1340 nM
- TGI (SK-MEL-28 melanoma): 13400 nM
- GI50 (SK-OV-3 ovarian): 741 nM
- TGI (SK-OV-3 ovarian): 4800 nM
- GI50 (U251 glioblastoma): 2350 nM
- TGI (U251 glioblastoma): 13200 nM
- GI50 (MALME-3M melanoma): 287 nM
- TGI (MALME-3M melanoma): 4720 nM
- GI50 (HCC-2998 colon): 711 nM
- TGI (HCC-2998 colon): 3360 nM
- GI50 (NCI-H522 lung): 407 nM
- TGI (NCI-H522 lung): 1720 nM
- GI50 (K-562 leukemia): 4530 nM
- TGI (K-562 leukemia): 18100 nM
- GI50 (CAKI-1 renal): 664 nM
- TGI (CAKI-1 renal): 2440 nM
- GI50 (HOP-92 NSCLC): 472 nM
- TGI (HOP-92 NSCLC): 2230 nM
- GI50 (TK-10 renal): 450 nM
- TGI (TK-10 renal): 2190 nM
- GI50 (CCRF-CEM leukemia): 199 nM
- TGI (CCRF-CEM leukemia): 376 nM
- GI50 (HL-60(TB) leukemia): 107 nM
- TGI (HL-60(TB) leukemia): 264 nM
- GI50 (UACC-62 melanoma): 487 nM
- TGI (UACC-62 melanoma): 2910 nM
- GI50 (SNB-75 CNS): 1160 nM
- TGI (SNB-75 CNS): 4180 nM
- GI50 (SK-MEL-2 melanoma): 333 nM
- TGI (SK-MEL-2 melanoma): 1670 nM
- GI50 (OVCAR-8 ovarian): 846 nM
- TGI (OVCAR-8 ovarian): 5780 nM
- GI50 (MDA-MB-231 breast): 715 nM
- TGI (MDA-MB-231 breast): > 100000 nM
- GI50 (SN12C renal): 1380 nM
- TGI (SN12C renal): 6860 nM
- GI50 (LOX IMVI melanoma): 754 nM
- TGI (LOX IMVI melanoma): 2500 nM
- GI50 (T-47D breast): 1710 nM
- TGI (T-47D breast): 8710 nM
- GI50 (OVCAR-4 ovarian): 547 nM
- TGI (OVCAR-4 ovarian): 18700 nM
- GI50 (SK-MEL-5 melanoma): 766 nM
- TGI (SK-MEL-5 melanoma): 10700 nM
- GI50 (NCI-H322M lung): 1320 nM
- TGI (NCI-H322M lung): 3980 nM
- GI50 (HCT-116 colon): 562 nM
- TGI (HCT-116 colon): 2850 nM
- GI50 (BT-549 breast): 1260 nM
- TGI (BT-549 breast): 10400 nM
- GI50 (HCT-15 colon): 464 nM
- TGI (HCT-15 colon): 10900 nM
- GI50 (MOLT-4 leukemia): 200 nM
- TGI (MOLT-4 leukemia): 380 nM
- GI50 (COLO 205 colon): 138 nM
- TGI (COLO 205 colon): 289 nM
- GI50 (ACHN renal): 1110 nM
- TGI (ACHN renal): 9280 nM
- GI50 (MDA-MB-435 melanoma): 441 nM
- TGI (MDA-MB-435 melanoma): 6630 nM
